Changes are numbered by the printed parent chain. Several values for one entry are separate records, joined by “and”; a condition that tells them apart may be missing. Identical values can stand only once. Like-named read-outs stand apart in the source and are kept apart here. One block for each compound: values may come before it.
Assays:
[1] = target: T1, human pancreatic α-amylase (HPA) (Homo sapiens, UniProt P04746); assay: Inhibition of wild-type human pancreatic α-amylase (HPA), kinetic KI determination with CNP-G3; format: biochemical
T1 construct: made in house; host or cells: Pichia pastoris strain GM5011
T1 sequence (P04746 16-511): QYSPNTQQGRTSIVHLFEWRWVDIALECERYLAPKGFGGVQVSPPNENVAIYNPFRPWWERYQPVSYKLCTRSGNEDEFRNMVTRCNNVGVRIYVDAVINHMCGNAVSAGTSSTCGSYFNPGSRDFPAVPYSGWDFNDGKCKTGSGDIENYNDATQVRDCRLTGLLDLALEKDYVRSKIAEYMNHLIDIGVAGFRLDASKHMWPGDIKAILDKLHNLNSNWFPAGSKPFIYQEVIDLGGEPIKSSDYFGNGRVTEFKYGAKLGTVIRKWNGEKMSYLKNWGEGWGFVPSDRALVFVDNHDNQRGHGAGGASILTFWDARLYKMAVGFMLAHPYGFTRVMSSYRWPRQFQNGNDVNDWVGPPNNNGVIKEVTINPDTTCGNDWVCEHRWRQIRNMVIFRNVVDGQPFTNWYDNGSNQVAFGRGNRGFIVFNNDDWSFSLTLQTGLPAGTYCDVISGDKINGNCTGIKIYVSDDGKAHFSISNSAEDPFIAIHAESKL

[2] = target: Roseburia inulinivorans Amy A (Roseburia inulinivorans, UniProt A0ACG1Y5C3); assay: Inhibition of gut bacterial amylase Roseburia inulinivorans Amy A; format: biochemical; conditions: for Ki: GH family 13
Sequence of Roseburia inulinivorans Amy A (A0ACG1Y5C3 entry or part of it): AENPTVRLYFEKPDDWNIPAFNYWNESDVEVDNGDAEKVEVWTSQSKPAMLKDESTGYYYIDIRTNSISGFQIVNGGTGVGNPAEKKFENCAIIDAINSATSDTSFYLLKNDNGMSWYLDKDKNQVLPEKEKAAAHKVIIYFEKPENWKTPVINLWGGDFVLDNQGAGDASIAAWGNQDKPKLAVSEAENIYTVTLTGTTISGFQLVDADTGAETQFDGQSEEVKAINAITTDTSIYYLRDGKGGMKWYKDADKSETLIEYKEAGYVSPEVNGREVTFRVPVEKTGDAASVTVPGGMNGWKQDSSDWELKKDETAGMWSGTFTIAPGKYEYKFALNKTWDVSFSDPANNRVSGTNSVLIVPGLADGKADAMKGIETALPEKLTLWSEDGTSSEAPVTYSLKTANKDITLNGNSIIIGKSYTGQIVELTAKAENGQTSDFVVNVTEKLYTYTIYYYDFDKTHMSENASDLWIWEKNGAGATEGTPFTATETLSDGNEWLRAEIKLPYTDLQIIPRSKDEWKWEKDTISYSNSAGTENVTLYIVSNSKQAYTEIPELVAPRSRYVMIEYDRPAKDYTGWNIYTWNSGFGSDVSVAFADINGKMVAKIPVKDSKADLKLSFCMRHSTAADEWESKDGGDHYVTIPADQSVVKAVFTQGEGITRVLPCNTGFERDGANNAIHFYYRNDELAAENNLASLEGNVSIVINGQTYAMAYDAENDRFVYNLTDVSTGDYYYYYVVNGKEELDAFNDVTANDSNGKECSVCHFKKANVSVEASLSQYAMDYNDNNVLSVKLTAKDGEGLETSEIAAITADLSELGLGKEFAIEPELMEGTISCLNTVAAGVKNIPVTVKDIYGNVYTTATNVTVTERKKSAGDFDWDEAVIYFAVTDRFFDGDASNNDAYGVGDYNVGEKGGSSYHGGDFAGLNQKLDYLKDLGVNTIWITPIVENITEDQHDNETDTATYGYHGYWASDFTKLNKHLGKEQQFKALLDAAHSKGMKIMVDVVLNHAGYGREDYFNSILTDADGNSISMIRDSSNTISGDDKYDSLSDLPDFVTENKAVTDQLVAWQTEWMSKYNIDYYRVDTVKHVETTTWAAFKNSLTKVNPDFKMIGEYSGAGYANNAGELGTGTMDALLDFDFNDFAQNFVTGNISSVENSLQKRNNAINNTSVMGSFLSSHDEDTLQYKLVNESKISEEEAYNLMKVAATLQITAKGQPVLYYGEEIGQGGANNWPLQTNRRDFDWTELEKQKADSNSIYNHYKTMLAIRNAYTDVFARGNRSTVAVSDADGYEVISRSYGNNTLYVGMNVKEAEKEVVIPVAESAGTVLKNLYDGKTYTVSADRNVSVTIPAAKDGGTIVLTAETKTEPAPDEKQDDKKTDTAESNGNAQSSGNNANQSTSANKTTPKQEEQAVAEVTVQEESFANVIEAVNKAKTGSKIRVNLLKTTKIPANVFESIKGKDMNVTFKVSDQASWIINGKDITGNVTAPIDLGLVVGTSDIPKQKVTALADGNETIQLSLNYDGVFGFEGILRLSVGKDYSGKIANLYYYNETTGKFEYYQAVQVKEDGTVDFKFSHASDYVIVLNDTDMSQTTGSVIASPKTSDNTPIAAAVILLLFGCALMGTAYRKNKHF

[3] = target: T2, Homo sapiens ntMGAM (Homo sapiens, UniProt O43451); assay: Inhibition of N-terminal domain of maltase glucoamylase; format: biochemical; conditions: for Ki: GH family 31
T2 construct: Homo sapiens ntMGAM
T2 sequence (O43451 356-737 limits assumed): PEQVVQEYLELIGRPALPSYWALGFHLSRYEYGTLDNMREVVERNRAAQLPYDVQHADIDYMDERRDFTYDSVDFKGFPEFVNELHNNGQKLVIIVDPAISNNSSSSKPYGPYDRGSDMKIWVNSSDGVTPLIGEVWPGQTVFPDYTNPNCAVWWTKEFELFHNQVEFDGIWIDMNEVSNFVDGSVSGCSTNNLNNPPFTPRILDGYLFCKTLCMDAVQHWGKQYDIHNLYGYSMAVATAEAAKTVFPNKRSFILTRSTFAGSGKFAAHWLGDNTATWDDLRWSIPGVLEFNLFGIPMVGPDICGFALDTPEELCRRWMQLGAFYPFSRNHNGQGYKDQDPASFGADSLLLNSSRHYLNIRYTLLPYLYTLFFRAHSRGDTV

[4] = target: T3, H. sapiens ctMGAM (Homo sapiens, UniProt O43451); assay: Inhibition of C-terminal domain of maltase-glucoamylase; format: biochemical; conditions: for Ki: GH family 31
T3 construct: H. sapiens ctMGAM
T3 sequence (O43451 1221-1632 limits assumed): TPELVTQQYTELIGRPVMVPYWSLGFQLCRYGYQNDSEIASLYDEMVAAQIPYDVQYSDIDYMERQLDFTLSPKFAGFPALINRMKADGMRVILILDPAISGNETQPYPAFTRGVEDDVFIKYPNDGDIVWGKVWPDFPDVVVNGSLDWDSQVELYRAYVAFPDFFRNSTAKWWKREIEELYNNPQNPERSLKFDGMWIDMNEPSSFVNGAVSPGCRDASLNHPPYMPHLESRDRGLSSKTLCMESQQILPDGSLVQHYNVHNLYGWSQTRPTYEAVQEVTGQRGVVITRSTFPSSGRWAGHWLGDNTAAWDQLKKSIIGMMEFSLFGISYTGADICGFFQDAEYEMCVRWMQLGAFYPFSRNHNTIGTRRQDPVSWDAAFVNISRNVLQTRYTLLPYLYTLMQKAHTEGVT

[5] = target: T4, H. sapiens ctSI (Homo sapiens, UniProt P14410); assay: Inhibition of C-terminal domain of sucrose-isomaltase; format: biochemical
T4 construct: H. sapiens ctSI
T4 sequence (P14410 1008-1827 limits assumed): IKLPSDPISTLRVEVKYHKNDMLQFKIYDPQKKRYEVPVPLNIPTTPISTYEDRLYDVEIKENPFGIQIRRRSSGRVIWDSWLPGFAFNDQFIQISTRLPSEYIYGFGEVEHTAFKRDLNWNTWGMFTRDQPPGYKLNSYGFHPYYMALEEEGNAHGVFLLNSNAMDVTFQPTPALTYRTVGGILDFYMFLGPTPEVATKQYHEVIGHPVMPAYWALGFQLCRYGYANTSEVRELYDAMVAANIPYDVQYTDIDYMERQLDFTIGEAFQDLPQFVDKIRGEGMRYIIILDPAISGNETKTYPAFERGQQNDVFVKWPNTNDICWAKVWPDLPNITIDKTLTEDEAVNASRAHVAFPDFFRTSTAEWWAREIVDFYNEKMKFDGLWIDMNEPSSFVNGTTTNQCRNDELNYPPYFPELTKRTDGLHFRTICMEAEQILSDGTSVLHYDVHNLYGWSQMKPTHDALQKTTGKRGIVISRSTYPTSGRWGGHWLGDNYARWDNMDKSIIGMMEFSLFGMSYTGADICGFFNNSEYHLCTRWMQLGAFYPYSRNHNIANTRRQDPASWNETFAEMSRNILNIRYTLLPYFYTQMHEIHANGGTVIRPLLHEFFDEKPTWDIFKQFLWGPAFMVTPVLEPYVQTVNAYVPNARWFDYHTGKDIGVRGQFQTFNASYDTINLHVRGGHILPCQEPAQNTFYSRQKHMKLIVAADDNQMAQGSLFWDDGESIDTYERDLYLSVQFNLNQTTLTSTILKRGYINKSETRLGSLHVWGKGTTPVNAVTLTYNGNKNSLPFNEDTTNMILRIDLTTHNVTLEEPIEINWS

[6] = target: T5, H299N HPA (Homo sapiens, UniProt P04746, H314N); assay: Inhibition of H299N variant HPA, kinetic KI determination; format: biochemical; conditions: variant used for co-crystallization; read-out: KI for inhibition of the H299N HPA variant enzyme
T5 construct: made in house; host or cells: Pichia pastoris strain GM5011
T5 sequence (P04746 16-511 H314N): T1 sequence (P04746 16-511) with H299N
Protocol: Kinetic Studies. The inhibition constants (KI) of montbretins A-E and MbA substructures for wild-type HPA, along with MbA for H299N HPA were determined by measuring the rates of reactions at different inhibitor and substrate concentrations. […] 2-Chloro-4-nitrophenyl α-D-maltotrioside (CNP-G3) was used as the substrate in a similar range of concentrations. Initial reaction rates for the release of chloronitrophenolate were measured and the further progress of substrate cleavage monitored continuously. Reactions were performed on a Varian Cary 4000 UV/Vis spectrophotometer at 400 nm and 30° C. Observed reaction rates were fitted directly to various inhibition models using GraFit version 5.0.13 and KI values were determined. Competitive inhibition provided the best fit in each case.

[7] = target: Butyrivibrio fibrisolvens Amy B; assay: Inhibition of gut bacterial amylase Butyrivibrio fibrisolvens Amy B; format: biochemical
[8] = target: T1, human pancreatic α-amylase (HPA); conditions: literature value, reference (5); read-out: Ki, binds to HPA; cited from earlier work
[9] = test system: diabetic rat model; conditions: McNeill, unpublished data; cited from earlier work
[10] = Tables 4 and 5, read-out: Ki (HPA Inhibition)
[11] = wild-type HPA, CNP-G3 substrate, pH 7.0, 30° C., competitive inhibition model, read-out: Ki of HPA
[12] = Table 6, GH family 13, mean ± s.d., read-out: Ki (nM), HPA
[13] = tested at 100 μM, read-out: Ki With MbA-GRX
[14] = tested at 500 μM, read-out: Ki with MbA

Ki [1, 11]: 79 nM and 79.3 nM
Compound: CC1O[C@@H](Oc2c(-c3cc(O)c(O[C@@H]4OC[C@@H](O)C(O)C4O)c(O)c3)oc3cc(O)cc(O)c3c2=O)C(O[C@@H]2OC(COC(=O)/C=C/c3ccc(O)c(O)c3)[C@@H](O)C(O)C2O)C(O)[C@H]1O (stereo partly drawn) [MbA-1GR]

decrease in inhibitory activity ([1]; relative to MbA, reference (5)): ~1000 ×
Compound: montbretin B [MbB]

Ki [1, 12]: 93.3 ± 7.6 nM
poorer at binding to the active site of HPA than the full structure of MbA ([1]; relative to MbA (KI=4.4 nM)): ~25 ×
Ki [1, 11]: 93 nM and 93.3 nM
Ki [2, 13]: > 100 µM
Ki [3, 13]: > 100 µM
inhibition of maltase-glucoamylase (in words) ([3]; MbA-GRX): No inhibition
Ki [4, 13]: > 100 µM
inhibition of maltase-glucoamylase (in words) ([4]; MbA-GRX): No inhibition
IC50 [5]: 75.5 µM
Compound: CC1O[C@@H](Oc2c(-c3cc(O)c(O)c(O)c3)oc3cc(O)cc(O)c3c2=O)C(O[C@@H]2OC(COC(=O)/C=C/c3ccc(O)c(O)c3)[C@@H](O)[C@@H](O)C2O)[C@@H](O)[C@H]1O (stereo partly drawn) [MbA-1GRX]

Ki [1, 10]: 4000 nM
Compound: O=C(/C=C/c1ccc(O)c(O)c1)NCCCCCCCOc1c(-c2ccc(O)c(O)c2)oc2cc(O)cc(O)c2c1=O [Compound 05]

Ki [1, 10]: 145000 nM
Compound: O=C(/C=C/c1ccc(O)c(O)c1)NCCCOc1c(-c2ccc(O)c(O)c2)oc2cc(O)cc(O)c2c1=O [Compound 03]

Ki [1, 11]: 43 nM and 42.4 nM
Compound: CC1O[C@@H](Oc2c(-c3cc(O)c(O)c(O)c3)oc3cc(O)cc(O)c3c2=O)C(O[C@@H]2OC(COC(=O)/C=C/c3ccc(O)c(O)c3)[C@@H](O)[C@@H](O)C2O[C@@H]2OC(CO)[C@@H](O)[C@@H](O)C2O)[C@@H](O)[C@H]1O (stereo partly drawn) [MbA-RX]

lower inhibition for HPA than MbB ([1]; relative to MbB): 2 ×
Compound: montbretin C [MbC]

Second part, the compound before the results:

Compound: O=C(/C=C/c1ccc(O)c(O)c1)N[C@@H]1[C@H](O)[C@@H](O)[C@H](O[C@H]2[C@H](O)[C@@H](O)[C@H](Oc3c(-c4ccc(O)c(O)c4)oc4cc(O)cc(O)c4c3=O)O[C@@H]2CO)O[C@@H]1CO [12 (4-aminoGal)]
Ki [1, 10]: 45000 nM

Compound: Quercetin/Myricetin
Ki [1, 10]: 100000 nM

Compound: O=C(/C=C/c1ccc(O)c(O)c1)NCCOCCOCCOc1c(-c2ccc(O)c(O)c2)oc2cc(O)cc(O)c2c1=O [Compound 02]
Ki [1, 10]: 82000 nM

Compound: Montbretin D [MbD]
inhibitory activity against HPA (in words) [1]: poor inhibitory activity

Compound: O=C(/C=C/c1ccc(O)c(O)c1)NC[C@H]1O[C@@H](O[C@H]2[C@H](O)[C@@H](O)[C@H](Oc3c(-c4ccc(O)c(O)c4)oc4cc(O)cc(O)c4c3=O)O[C@@H]2CO)[C@H](O)[C@@H](O)[C@@H]1O [11 (6-aminoGlc)]
Ki [1, 10]: 70000 nM

Compound: montbretin A [MbA]
Ki [1, 12]: 8.1 nM
Ki [1, 10]: 8 nM
Ki [1, 11]: 4.4 nM
Ki [6]: 0.124 µM
inhibition of gut bacterial amylase (in words) [2]: not inhibited at all
Ki [2, 14]: > 500 µM
Ki [7]: 1.6 µM
Ki [3, 14]: > 500 µM
inhibition of human maltase-glucoamylase (MGAM) (in words) ([3]; concentrations up to 500 μM): Neither the human maltase-glucoamylase (MGAM) nor the human sucrose isomaltase (SI) was inhibited
Ki [4, 14]: > 500 µM
inhibition of human maltase-glucoamylase (MGAM) (in words) ([4]; concentrations up to 500 μM): Neither the human maltase-glucoamylase (MGAM) nor the human sucrose isomaltase (SI) was inhibited
Ki ([5]; GH family 31, tested at 500 μM, read-out: Ki with MbA): > 500 µM
inhibition of human sucrose isomaltase (SI) (in words) ([5]; concentrations up to 500 μM): Neither the human maltase-glucoamylase (MGAM) nor the human sucrose isomaltase (SI) was inhibited
Ki [8]: 0.008 µM
reducing postprandial glucose spiking and delaying the onset of diabetes [9]: superior to other inhibitors

Compound: Montbretin E [MbE]
inhibitory activity against HPA (in words) [1]: poor inhibitory activity

Reference: patent US11608353B2, “Amylase inhibitor compounds, methods of their use and compositions thereof” (THE UNIVERSITY OF BRITISH COLUMBIA, priority 2016, dated 2023)
